Tests used:
Assay in all cases: relative viability (nuclei count vs DMSO), 5 days (fraction); higher = more cells survive
IU1-47 + Alpelisib = compound: CC1=CC(=C(N1C2=CC=C(C=C2)Cl)C)C(=O)CN3CCCCC3 [IU1-47] + Cc1nc(NC(=O)N2CCC[C@H]2C(N)=O)sc1-c1ccnc(C(C)(C)C(F)(F)F)c1 [Alpelisib] (partner 2 µM)
Procedure, shortened: (§1)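 Relative viability was taken as the ratio of nuclei in treated wells to nuclei in vehicle wells. Lung cancer cell lines in 1536-well plates received compounds by pin tool one day after seeding, either one drug alone or a fixed anchor-drug dose plus five library-drug doses (not always all listed) in √10 steps. Nuclei were counted on 4× images after 5 days of treatment, and values are medians of duplicate plates.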

IU1-47 + Dasatinib = compound: CC1=CC(=C(N1C2=CC=C(C=C2)Cl)C)C(=O)CN3CCCCC3 [IU1-47] + Cc1nc(Nc2ncc(C(=O)Nc3c(C)cccc3Cl)s2)cc(N2CCN(CCO)CC2)n1 [Dasatinib] (partner 0.075 µM)
Procedure, shortened: as §1

FG-4592 + Foretinib = compound: Cc1nc(C(=O)NCC(=O)O)c(O)c2ccc(Oc3ccccc3)cc12 [FG-4592] + COc1cc2c(Oc3ccc(NC(=O)C4(C(=O)Nc5ccc(F)cc5)CC4)cc3F)ccnc2cc1OCCCN1CCOCC1 [Foretinib] (partner 0.25 µM)
Procedure, shortened: as §1

FG-4592 + Phenformin = compound: Cc1nc(C(=O)NCC(=O)O)c(O)c2ccc(Oc3ccccc3)cc12 [FG-4592] + N=C(N)NC(=N)NCCc1ccccc1 [Phenformin] (partner 250 µM)
Procedure, shortened: as §1

Cell Line: NCI-H2405
- relative viability (IU1-47 + Alpelisib; first compound 0.08 µM): 0.795
- relative viability (IU1-47 + Alpelisib; first compound 0.253 µM): 0.761
- relative viability (IU1-47 + Alpelisib; first compound 0.8 µM): 0.749
- relative viability (IU1-47 + Alpelisib; first compound 8 µM): 0.768
- relative viability (IU1-47 + Dasatinib; first compound 0.08 µM): 0.21
- relative viability (IU1-47 + Dasatinib; first compound 0.253 µM): 0.234
- relative viability (IU1-47 + Dasatinib; first compound 0.8 µM): 0.208
- relative viability (IU1-47 + Dasatinib; first compound 2.53 µM): 0.206
- relative viability (IU1-47 + Dasatinib; first compound 8 µM): 0.208
- relative viability (FG-4592 + Foretinib; first compound 0.08 µM): 0.962
- relative viability (FG-4592 + Foretinib; first compound 0.8 µM): 1.03
- relative viability (FG-4592 + Foretinib; first compound 2.53 µM): 1.02
- relative viability (FG-4592 + Foretinib; first compound 8 µM): 1.14
- relative viability (FG-4592 + Phenformin; first compound 0.08 µM): 0.282
- relative viability (FG-4592 + Phenformin; first compound 0.8 µM): 0.382
- relative viability (FG-4592 + Phenformin; first compound 2.53 µM): 0.342
- relative viability (FG-4592 + Phenformin; first compound 8 µM): 0.42

Cell Line: NCI-H3122
- relative viability (IU1-47 + Alpelisib; first compound 0.08 µM): 0.82
- relative viability (IU1-47 + Alpelisib; first compound 0.253 µM): 1.02
- relative viability (IU1-47 + Alpelisib; first compound 0.8 µM): 0.97
- relative viability (IU1-47 + Alpelisib; first compound 2.53 µM): 0.967
- relative viability (IU1-47 + Alpelisib; first compound 8 µM): 0.724
- relative viability (IU1-47 + Dasatinib; first compound 0.253 µM): 0.816
- relative viability (IU1-47 + Dasatinib; first compound 0.8 µM): 0.854
- relative viability (IU1-47 + Dasatinib; first compound 2.53 µM): 0.892
- relative viability (IU1-47 + Dasatinib; first compound 8 µM): 1.01
- relative viability (FG-4592 + Foretinib; first compound 0.08 µM): 0.957
- relative viability (FG-4592 + Foretinib; first compound 0.253 µM): 0.952
- relative viability (FG-4592 + Foretinib; first compound 0.8 µM): 0.934
- relative viability (FG-4592 + Foretinib; first compound 2.53 µM): 0.993
- relative viability (FG-4592 + Foretinib; first compound 8 µM): 0.921
- relative viability (FG-4592 + Phenformin; first compound 0.08 µM): 0.42
- relative viability (FG-4592 + Phenformin; first compound 0.253 µM): 0.349
- relative viability (FG-4592 + Phenformin; first compound 0.8 µM): 0.398
- relative viability (FG-4592 + Phenformin; first compound 2.53 µM): 0.334
- relative viability (FG-4592 + Phenformin; first compound 8 µM): 0.385

Cell Line: PC-3 [JPC-3]
- relative viability (IU1-47 + Alpelisib; first compound 0.08 µM): 1.08
- relative viability (IU1-47 + Alpelisib; first compound 0.253 µM): 0.982
- relative viability (IU1-47 + Alpelisib; first compound 0.8 µM): 1.04
- relative viability (IU1-47 + Alpelisib; first compound 8 µM): 1.01
- relative viability (IU1-47 + Dasatinib; first compound 0.08 µM): 1.01
- relative viability (IU1-47 + Dasatinib; first compound 0.253 µM): 1.02
- relative viability (IU1-47 + Dasatinib; first compound 0.8 µM): 0.982
- relative viability (IU1-47 + Dasatinib; first compound 2.53 µM): 0.956
- relative viability (IU1-47 + Dasatinib; first compound 8 µM): 0.788
- relative viability (FG-4592 + Foretinib; first compound 0.08 µM): 1.09
- relative viability (FG-4592 + Foretinib; first compound 0.253 µM): 0.937
- relative viability (FG-4592 + Foretinib; first compound 0.8 µM): 1.06
- relative viability (FG-4592 + Foretinib; first compound 2.53 µM): 1.04
- relative viability (FG-4592 + Foretinib; first compound 8 µM): 1.02
- relative viability (FG-4592 + Phenformin; first compound 0.08 µM): 0.489
- relative viability (FG-4592 + Phenformin; first compound 0.253 µM): 0.457
- relative viability (FG-4592 + Phenformin; first compound 0.8 µM): 0.531
- relative viability (FG-4592 + Phenformin; first compound 2.53 µM): 0.462
- relative viability (FG-4592 + Phenformin; first compound 8 µM): 0.486

Cell Line: PC-14
- relative viability (IU1-47 + Alpelisib; first compound 0.08 µM): 1.03
- relative viability (IU1-47 + Alpelisib; first compound 0.253 µM): 0.987
- relative viability (IU1-47 + Alpelisib; first compound 0.8 µM): 1.12
- relative viability (IU1-47 + Alpelisib; first compound 2.53 µM): 1.02
- relative viability (IU1-47 + Alpelisib; first compound 8 µM): 0.782
- relative viability (IU1-47 + Dasatinib; first compound 0.08 µM): 0.223
- relative viability (IU1-47 + Dasatinib; first compound 0.253 µM): 0.257
- relative viability (IU1-47 + Dasatinib; first compound 0.8 µM): 0.209
- relative viability (IU1-47 + Dasatinib; first compound 2.53 µM): 0.226
- relative viability (IU1-47 + Dasatinib; first compound 8 µM): 0.205
- relative viability (FG-4592 + Foretinib; first compound 0.08 µM): 1.09
- relative viability (FG-4592 + Foretinib; first compound 0.253 µM): 0.997
- relative viability (FG-4592 + Foretinib; first compound 0.8 µM): 1
- relative viability (FG-4592 + Foretinib; first compound 2.53 µM): 0.965
- relative viability (FG-4592 + Foretinib; first compound 8 µM): 0.987
- relative viability (FG-4592 + Phenformin; first compound 0.08 µM): 0.628
- relative viability (FG-4592 + Phenformin; first compound 0.253 µM): 0.505
- relative viability (FG-4592 + Phenformin; first compound 0.8 µM): 0.411
- relative viability (FG-4592 + Phenformin; first compound 2.53 µM): 0.667
- relative viability (FG-4592 + Phenformin; first compound 8 µM): 0.558

Cell Line: RERF-LC-KJ
- relative viability (IU1-47 + Alpelisib; first compound 0.08 µM): 0.785
- relative viability (IU1-47 + Alpelisib; first compound 0.253 µM): 0.946
- relative viability (IU1-47 + Alpelisib; first compound 0.8 µM): 0.775
- relative viability (IU1-47 + Alpelisib; first compound 2.53 µM): 0.869
- relative viability (IU1-47 + Alpelisib; first compound 8 µM): 0.76
- relative viability (IU1-47 + Dasatinib; first compound 0.08 µM): 0.926
- relative viability (IU1-47 + Dasatinib; first compound 0.253 µM): 0.947
- relative viability (IU1-47 + Dasatinib; first compound 0.8 µM): 0.817
- relative viability (IU1-47 + Dasatinib; first compound 2.53 µM): 0.877
- relative viability (IU1-47 + Dasatinib; first compound 8 µM): 0.781
- relative viability (FG-4592 + Foretinib; first compound 0.08 µM): 0.853
- relative viability (FG-4592 + Foretinib; first compound 0.253 µM): 0.868
- relative viability (FG-4592 + Foretinib; first compound 0.8 µM): 0.817
- relative viability (FG-4592 + Foretinib; first compound 2.53 µM): 0.888
- relative viability (FG-4592 + Foretinib; first compound 8 µM): 0.771
- relative viability (FG-4592 + Phenformin; first compound 0.08 µM): 0.378
- relative viability (FG-4592 + Phenformin; first compound 0.253 µM): 0.324
- relative viability (FG-4592 + Phenformin; first compound 0.8 µM): 0.418
- relative viability (FG-4592 + Phenformin; first compound 2.53 µM): 0.538
- relative viability (FG-4592 + Phenformin; first compound 8 µM): 0.481

Cell Line: SK-LU-1
- relative viability (IU1-47 + Alpelisib; first compound 0.08 µM): 0.8
- relative viability (IU1-47 + Alpelisib; first compound 0.253 µM): 1.22
- relative viability (IU1-47 + Alpelisib; first compound 0.8 µM): 0.943
- relative viability (IU1-47 + Alpelisib; first compound 2.53 µM): 1.31
- relative viability (IU1-47 + Alpelisib; first compound 8 µM): 0.807
- relative viability (IU1-47 + Dasatinib; first compound 0.08 µM): 0.208
- relative viability (IU1-47 + Dasatinib; first compound 0.253 µM): 0.187
- relative viability (IU1-47 + Dasatinib; first compound 0.8 µM): 0.182
- relative viability (IU1-47 + Dasatinib; first compound 2.53 µM): 0.18
- relative viability (IU1-47 + Dasatinib; first compound 8 µM): 0.159
- relative viability (FG-4592 + Foretinib; first compound 0.08 µM): 0.866
- relative viability (FG-4592 + Foretinib; first compound 0.253 µM): 0.646
- relative viability (FG-4592 + Foretinib; first compound 0.8 µM): 0.767
- relative viability (FG-4592 + Foretinib; first compound 2.53 µM): 0.881
- relative viability (FG-4592 + Foretinib; first compound 8 µM): 0.631
- relative viability (FG-4592 + Phenformin; first compound 0.08 µM): 0.445
- relative viability (FG-4592 + Phenformin; first compound 0.253 µM): 0.387
- relative viability (FG-4592 + Phenformin; first compound 0.8 µM): 0.456
- relative viability (FG-4592 + Phenformin; first compound 2.53 µM): 0.49
- relative viability (FG-4592 + Phenformin; first compound 8 µM): 0.5

Cell Line: SK-MES-1
- relative viability (IU1-47 + Alpelisib; first compound 0.08 µM): 0.885
- relative viability (IU1-47 + Alpelisib; first compound 0.253 µM): 0.998
- relative viability (IU1-47 + Alpelisib; first compound 0.8 µM): 1.03
- relative viability (IU1-47 + Alpelisib; first compound 2.53 µM): 0.859
- relative viability (IU1-47 + Alpelisib; first compound 8 µM): 0.922
- relative viability (IU1-47 + Dasatinib; first compound 0.08 µM): 0.376
- relative viability (IU1-47 + Dasatinib; first compound 0.253 µM): 0.467
- relative viability (IU1-47 + Dasatinib; first compound 0.8 µM): 0.335
- relative viability (IU1-47 + Dasatinib; first compound 2.53 µM): 0.405
- relative viability (IU1-47 + Dasatinib; first compound 8 µM): 0.315
- relative viability (FG-4592 + Foretinib; first compound 0.08 µM): 1.09
- relative viability (FG-4592 + Foretinib; first compound 0.253 µM): 0.724
- relative viability (FG-4592 + Foretinib; first compound 0.8 µM): 0.779
- relative viability (FG-4592 + Foretinib; first compound 2.53 µM): 0.934
- relative viability (FG-4592 + Foretinib; first compound 8 µM): 0.836
- relative viability (FG-4592 + Phenformin; first compound 0.08 µM): 0.626
- relative viability (FG-4592 + Phenformin; first compound 0.253 µM): 0.66
- relative viability (FG-4592 + Phenformin; first compound 0.8 µM): 0.669
- relative viability (FG-4592 + Phenformin; first compound 2.53 µM): 0.596
- relative viability (FG-4592 + Phenformin; first compound 8 µM): 0.674

Cell Line: SW 1573
- relative viability (IU1-47 + Alpelisib; first compound 0.08 µM): 0.905
- relative viability (IU1-47 + Alpelisib; first compound 0.253 µM): 0.758
- relative viability (IU1-47 + Alpelisib; first compound 0.8 µM): 0.664
- relative viability (IU1-47 + Alpelisib; first compound 2.53 µM): 0.756
- relative viability (IU1-47 + Alpelisib; first compound 8 µM): 0.839
- relative viability (IU1-47 + Dasatinib; first compound 0.08 µM): 0.498
- relative viability (IU1-47 + Dasatinib; first compound 0.253 µM): 0.524
- relative viability (IU1-47 + Dasatinib; first compound 0.8 µM): 0.584
- relative viability (IU1-47 + Dasatinib; first compound 2.53 µM): 0.551
- relative viability (IU1-47 + Dasatinib; first compound 8 µM): 0.577
- relative viability (FG-4592 + Foretinib; first compound 0.08 µM): 0.913
- relative viability (FG-4592 + Foretinib; first compound 0.253 µM): 0.978
- relative viability (FG-4592 + Foretinib; first compound 0.8 µM): 0.884
- relative viability (FG-4592 + Foretinib; first compound 2.53 µM): 0.987
- relative viability (FG-4592 + Foretinib; first compound 8 µM): 0.963
- relative viability (FG-4592 + Phenformin; first compound 0.08 µM): 0.388
- relative viability (FG-4592 + Phenformin; first compound 0.253 µM): 0.346
- relative viability (FG-4592 + Phenformin; first compound 0.8 µM): 0.435
- relative viability (FG-4592 + Phenformin; first compound 2.53 µM): 0.372
- relative viability (FG-4592 + Phenformin; first compound 8 µM): 0.35

— the supplement of paper PMC10307832
